Test results reported in ChEMBL document CHEMBL1136654, “1H-Pyrazolo[3,4-b]pyridine inhibitors of cyclin-dependent kinases” (Bioorg Med Chem Lett, 2003).
pIC50: −log10 of the molar value.

What was measured:
[1] = molecular target: Cyclin-dependent kinase 2/cyclin E (Homo sapiens, UniProt P24941); assay: In vitro inhibition of human CDK2/cyclin E.; assay type: protein-complex assay
[2] = molecular target: Cyclin-dependent kinase 1/cyclin B (Homo sapiens, UniProt P06493); assay: Inhibitory concentration against CDK1/cyclin B was determined; assay type: protein-complex assay
Protein kinase C (PKC) = assay: Inhibition of PKC; assay type: protein assay
[3] = molecular target: Cyclin-dependent kinase 4/cyclin D (Homo sapiens, UniProt P11802); assay: Inhibition of CDK4/cyclin D was determined; assay type: protein-complex assay
[4] = molecular target: Cyclin-dependent kinase 7/ cyclin H (Homo sapiens, UniProt P50613); assay: Inhibition of CDK7/cyclin H; assay type: protein-complex assay
[5] = molecular target: Tyrosine-protein kinase Lck (Homo sapiens, UniProt P06239); assay: Inhibition of LCK
[6] = molecular target: cAMP-dependent protein kinase (PKA) (Homo sapiens, UniProt P22694+P17612+P22612); assay: Inhibition of PKA; assay type: protein assay
A2780 = assay: Cytotoxic effect in ovarian cancer cell line (A2780); assay type: functional, cell-based; conditions: Homo sapiens

Chain of Tyrosine-protein kinase Lck (P06239 whole entry): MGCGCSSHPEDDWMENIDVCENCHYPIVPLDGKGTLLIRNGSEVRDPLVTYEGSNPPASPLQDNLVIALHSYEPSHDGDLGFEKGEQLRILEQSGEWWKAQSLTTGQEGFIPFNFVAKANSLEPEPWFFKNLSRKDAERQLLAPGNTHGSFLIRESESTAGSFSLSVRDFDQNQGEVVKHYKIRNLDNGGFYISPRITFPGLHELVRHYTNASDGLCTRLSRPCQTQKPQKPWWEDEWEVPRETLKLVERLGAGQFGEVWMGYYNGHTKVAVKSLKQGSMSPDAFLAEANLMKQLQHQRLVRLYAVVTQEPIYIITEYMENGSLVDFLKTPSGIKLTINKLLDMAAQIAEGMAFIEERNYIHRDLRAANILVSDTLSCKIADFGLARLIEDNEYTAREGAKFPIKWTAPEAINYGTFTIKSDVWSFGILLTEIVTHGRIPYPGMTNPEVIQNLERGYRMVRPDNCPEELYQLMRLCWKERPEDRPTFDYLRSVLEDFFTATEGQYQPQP
Chain of Cyclin-dependent kinase 7/ cyclin H (P51946 whole entry): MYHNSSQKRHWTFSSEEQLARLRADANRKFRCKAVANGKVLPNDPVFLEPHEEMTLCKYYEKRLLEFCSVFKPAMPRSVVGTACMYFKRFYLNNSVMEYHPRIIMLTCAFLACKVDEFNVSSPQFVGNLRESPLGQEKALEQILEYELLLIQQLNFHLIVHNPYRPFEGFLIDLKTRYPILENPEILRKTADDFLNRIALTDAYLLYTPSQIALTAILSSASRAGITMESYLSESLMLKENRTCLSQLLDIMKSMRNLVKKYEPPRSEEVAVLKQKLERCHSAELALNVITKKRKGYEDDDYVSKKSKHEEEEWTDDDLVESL
Chain of Cyclin-dependent kinase 7/ cyclin H (P50613 whole entry): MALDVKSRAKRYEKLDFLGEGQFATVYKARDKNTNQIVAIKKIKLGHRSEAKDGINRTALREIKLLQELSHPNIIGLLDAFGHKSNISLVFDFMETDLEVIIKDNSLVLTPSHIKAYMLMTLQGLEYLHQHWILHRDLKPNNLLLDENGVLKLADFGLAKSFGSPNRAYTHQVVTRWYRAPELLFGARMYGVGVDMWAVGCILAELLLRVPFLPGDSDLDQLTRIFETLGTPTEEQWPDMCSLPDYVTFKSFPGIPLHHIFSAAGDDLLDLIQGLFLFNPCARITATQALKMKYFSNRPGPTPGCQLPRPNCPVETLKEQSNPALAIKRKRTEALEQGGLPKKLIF

| SMILES | pIC50 [1] | pIC50 [2] | further results |
| --- | --- | --- | --- |
| CCCC(C)Oc1c(C(=O)c2ccccc2)cnc2[nH]ncc12 (stereo not given) | 6.28 | 6.51 |  |
| O=C(c1ccccc1)c1cnc2[nH]ncc2c1OCCO | 5.43 |  |  |
| C=C(c1ccccc1)c1c[nH]c2nncc-2c1OCCCC | < 4.60 |  |  |
| CCCCOc1c2cnnc-2[nH]cc1C(O)c1ccccc1 (stereo not given) | < 4.60 |  |  |
| CCCCOc1c(Cc2ccccc2)c[nH]c2nncc1-2 | < 4.60 |  |  |
| CCn1ncc2c(OCCC(C)C)c(C(=O)c3ccccc3)cnc21 | < 4.60 |  |  |
| CCCCCOc1c(C(=O)c2ccccc2)cnc2[nH]ncc12 | 6.62 | 6.51 |  |
| CN(C)CCOc1c(C(=O)c2ccccc2)cnc2[nH]ncc12 | 4.77 |  |  |
| CCCOc1c(C(=O)c2ccccc2)cnc2[nH]ncc12 | 6.74 | 6.66 |  |
| CCCCOc1c(C(=O)c2ccccc2)cnc2[nH]ncc12 [SQ-67563] | 6.96 | 6.82 | pIC50 (A2780): 5.24; pIC50 [3]: < 4.60 |

Now from value to molecule, other results behind:

| pIC50 [1] | pIC50 [2] | SMILES | further results |
| --- | --- | --- | --- |
| < 4.60 |  | CCCCN(C)c1c(C(=O)c2ccccc2)cnc2[nH]ncc12 |  |
| 6.55 | 6.46 | O=C(c1ccccc1)c1cnc2[nH]ncc2c1OCc1ccccc1 |  |
| 5.36 |  | CCCCSc1c(C(=O)c2ccccc2)cnc2[nH]ncc12 |  |
| 4.82 |  | O=C(c1ccccc1)c1cnc2[nH]ncc2c1Oc1ccccc1 |  |
| 6.74 | 6.62 | CC(C)CCOc1c(C(=O)c2ccccc2)c[nH]c2nncc1-2 | IC50 (Protein kinase C (PKC)): > 50 µM; pIC50 [3]: < 4.60; pIC50 [4]: 5.96; pIC50 [5]: < 4.30; IC50 [6]: > 50 µM |
| 6.18 | 6.22 | O=C(c1ccccc1)c1cnc2[nH]ncc2c1OC1CCCCC1 |  |
